Test results: ChEMBL document CHEMBL1909046, “DrugMatrix in vitro pharmacology data”

Experiments:
[1] = target: Protein phosphatase 3 catalytic subunit alpha (Homo sapiens, UniProt Q08209); parameters: species or system Escherichia coli;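 note: inhibition of calcineurin (PP2B) enzyme activity, measured with DiFMUP as the substrate; in other assays of this panel Not Active means under 50% inhibition at 10 µM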
Cytochrome P450 2C19 = Cytochrome P450 2C19 (Homo sapiens, UniProt P33261); conditions: bti-tn-5b1-4; note: in other assays of this panel Not Active means under 50% inhibition at 10 µM
[2] = DRUGMATRIX: Phosphodiesterase PDE4 enzyme inhibition (substrate: [3H]cAMP + cAMP); conditions: u-937; Not Active = under 50% inhibition at 10 µM
Cytochrome P450 3A4 = Cytochrome P450 3A4 (Homo sapiens, UniProt P08684); conditions: bti-tn-5b1-4; note: in other assays of this panel Not Active means under 50% inhibition at 10 µM
Melanocortin receptor 5 = Melanocortin receptor 5 (Homo sapiens, UniProt P33032); assay type: cell membranes, HEK293, Membrane; conditions: hek293; note: in other assays of this panel Not Active means under 50% inhibition at 10 µM
[3] = target: Delta-type opioid receptor (Homo sapiens, UniProt P41143); assay type: cell membranes, HEK293, Membrane; conditions: hek293; note: in other assays of this panel Not Active means under 50% inhibition at 10 µM
[4] = DRUGMATRIX: Glutamate, NMDA, Phencyclidine radioligand binding (ligand: [3H] TCP); assay type: cell membranes, Rattus norvegicus, Wistar, Cerebral cortex, Membrane; conditions: Not Active = under 50% inhibition at 10 µM

Chain of Cytochrome P450 3A4 (P08684 whole entry): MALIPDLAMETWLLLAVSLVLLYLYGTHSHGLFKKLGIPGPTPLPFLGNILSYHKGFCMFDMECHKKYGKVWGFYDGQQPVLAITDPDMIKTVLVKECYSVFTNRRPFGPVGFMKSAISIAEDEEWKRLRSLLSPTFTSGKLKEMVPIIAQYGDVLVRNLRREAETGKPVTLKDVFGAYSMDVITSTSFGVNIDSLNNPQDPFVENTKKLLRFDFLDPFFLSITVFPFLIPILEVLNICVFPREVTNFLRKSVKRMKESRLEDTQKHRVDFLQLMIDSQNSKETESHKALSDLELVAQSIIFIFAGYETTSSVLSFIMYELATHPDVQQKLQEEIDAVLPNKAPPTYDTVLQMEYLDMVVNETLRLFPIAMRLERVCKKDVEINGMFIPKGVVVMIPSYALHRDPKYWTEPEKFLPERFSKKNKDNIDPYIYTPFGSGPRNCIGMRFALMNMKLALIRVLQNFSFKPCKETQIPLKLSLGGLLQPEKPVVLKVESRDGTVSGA
Chain of Delta-type opioid receptor (P41143 whole entry): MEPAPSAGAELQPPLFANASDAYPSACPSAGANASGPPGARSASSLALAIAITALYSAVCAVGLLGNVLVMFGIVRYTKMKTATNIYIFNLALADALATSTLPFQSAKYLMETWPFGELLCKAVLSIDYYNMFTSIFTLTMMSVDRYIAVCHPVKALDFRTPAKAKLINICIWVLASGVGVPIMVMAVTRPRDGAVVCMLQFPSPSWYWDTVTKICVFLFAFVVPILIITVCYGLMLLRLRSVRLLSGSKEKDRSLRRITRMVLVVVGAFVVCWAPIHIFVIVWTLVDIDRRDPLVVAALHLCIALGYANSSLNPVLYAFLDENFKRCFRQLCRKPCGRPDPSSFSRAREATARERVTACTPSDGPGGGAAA
Chain of Melanocortin receptor 5 (P33032 whole entry): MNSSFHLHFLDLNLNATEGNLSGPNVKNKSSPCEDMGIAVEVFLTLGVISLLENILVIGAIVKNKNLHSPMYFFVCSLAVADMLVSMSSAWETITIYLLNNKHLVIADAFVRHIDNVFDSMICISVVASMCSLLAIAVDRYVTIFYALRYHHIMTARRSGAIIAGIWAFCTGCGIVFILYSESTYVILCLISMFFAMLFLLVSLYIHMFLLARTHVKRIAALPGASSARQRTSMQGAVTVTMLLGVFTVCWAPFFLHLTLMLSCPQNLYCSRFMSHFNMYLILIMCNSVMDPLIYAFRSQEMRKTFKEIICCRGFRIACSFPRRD
Chain of Cytochrome P450 2C19 (P33261 whole entry): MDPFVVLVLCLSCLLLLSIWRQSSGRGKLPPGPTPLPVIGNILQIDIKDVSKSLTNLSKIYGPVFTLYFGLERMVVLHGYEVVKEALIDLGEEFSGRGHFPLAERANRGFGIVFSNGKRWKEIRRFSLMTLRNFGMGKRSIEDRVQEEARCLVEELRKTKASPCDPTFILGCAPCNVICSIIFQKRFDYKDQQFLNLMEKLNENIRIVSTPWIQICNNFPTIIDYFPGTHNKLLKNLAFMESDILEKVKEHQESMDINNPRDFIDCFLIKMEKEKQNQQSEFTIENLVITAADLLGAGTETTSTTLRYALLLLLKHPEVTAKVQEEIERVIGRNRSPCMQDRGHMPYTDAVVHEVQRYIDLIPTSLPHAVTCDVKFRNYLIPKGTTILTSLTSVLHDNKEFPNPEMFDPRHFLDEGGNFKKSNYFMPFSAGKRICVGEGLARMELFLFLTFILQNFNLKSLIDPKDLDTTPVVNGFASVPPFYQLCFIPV

Oc1ccccc1 [PHENOL]
Not Active: IC50 [1] | IC50 (Cytochrome P450 2C19) | Ki (Cytochrome P450 2C19) | IC50 [2] | Ki [2] | IC50 (Cytochrome P450 3A4) | Ki (Cytochrome P450 3A4) | IC50 (Melanocortin receptor 5) | IC50 [3] | IC50 [4] | Ki [4]

Nc1nc(F)nc2c1ncn2[C@@H]1O[C@H](CO)[C@@H](O)[C@@H]1O [FLUDARABINE]
Not Active: IC50 [1] | IC50 (Cytochrome P450 2C19) | Ki (Cytochrome P450 2C19) | IC50 [2] | Ki [2] | IC50 (Cytochrome P450 3A4) | Ki (Cytochrome P450 3A4) | IC50 (Melanocortin receptor 5) | IC50 [3] | IC50 [4] | Ki [4]

O=C1CN(/N=C/c2ccc([N+](=O)[O-])o2)C(=O)N1 [NITROFURANTOIN]
Not Active: IC50 [1] | IC50 (Cytochrome P450 2C19) | Ki (Cytochrome P450 2C19) | IC50 [2] | Ki [2] | IC50 (Cytochrome P450 3A4) | Ki (Cytochrome P450 3A4) | IC50 (Melanocortin receptor 5) | IC50 [3] | IC50 [4] | Ki [4]

CC12CCC(CC1=O)C2(C)C (stereo not given) [CAMPHOR]
Not Active: IC50 [1] | IC50 (Cytochrome P450 2C19) | Ki (Cytochrome P450 2C19) | IC50 [2] | Ki [2] | IC50 (Cytochrome P450 3A4) | Ki (Cytochrome P450 3A4) | IC50 (Melanocortin receptor 5) | IC50 [3] | IC50 [4] | Ki [4]

Nc1nc(N)c2nc(CNc3ccc(C(=O)N[C@@H](CCC(=O)O)C(=O)O)cc3)cnc2n1 [AMINOPTERIN]
Not Active: IC50 [1] | IC50 (Cytochrome P450 2C19) | Ki (Cytochrome P450 2C19) | IC50 [2] | Ki [2] | IC50 (Cytochrome P450 3A4) | Ki (Cytochrome P450 3A4) | IC50 (Melanocortin receptor 5) | IC50 [3] | IC50 [4] | Ki [4]

Cc1c(N)nc([C@H](CC(N)=O)NC[C@H](N)C(N)=O)nc1C(=O)N[C@H](C(=O)N[C@H](C)[C@@H](O)[C@H](C)C(=O)N[C@H](C(=O)NCCc1nc(-c2nc(C(=O)NCCC[S+](C)C)cs2)cs1)[C@@H](C)O)[C@@H](O[C@@H]1O[C@@H](CO)[C@@H](O)[C@H](O)[C@@H]1O[C@H]1O[C@H](CO)[C@@H](O)[C@H](OC(N)=O)[C@@H]1O)c1c[nH]cn1.[Br-] [BLEOMYCIN A2]
Not Active: IC50 [1] | IC50 (Cytochrome P450 2C19) | Ki (Cytochrome P450 2C19) | IC50 [2] | Ki [2] | IC50 (Cytochrome P450 3A4) | Ki (Cytochrome P450 3A4) | IC50 (Melanocortin receptor 5) | IC50 [3] | IC50 [4] | Ki [4]

OC[C@H]1O[C@@H]2O[C@H]3[C@H](O)[C@@H](O)[C@@H](O[C@H]4[C@H](O)[C@@H](O)[C@@H](O[C@H]5[C@H](O)[C@@H](O)[C@@H](O[C@H]6[C@H](O)[C@@H](O)[C@@H](O[C@H]7[C@H](O)[C@@H](O)[C@@H](O[C@H]1[C@H](O)[C@H]2O)O[C@@H]7CO)O[C@@H]6CO)O[C@@H]5CO)O[C@@H]4CO)O[C@@H]3CO [ALFADEX]
Not Active: IC50 [1] | IC50 (Cytochrome P450 2C19) | Ki (Cytochrome P450 2C19) | IC50 [2] | Ki [2] | IC50 (Cytochrome P450 3A4) | Ki (Cytochrome P450 3A4) | IC50 (Melanocortin receptor 5) | IC50 [3] | IC50 [4] | Ki [4]

O=C(Nc1ccc(Cl)c(Cl)c1)c1cc(Cl)cc(Cl)c1O [3,3',4',5-TETRACHLOROSALICYLANILIDE]
Not Active: IC50 [1] | IC50 (Cytochrome P450 2C19) | Ki (Cytochrome P450 2C19) | IC50 [2] | Ki [2] | IC50 (Cytochrome P450 3A4) | Ki (Cytochrome P450 3A4) | IC50 (Melanocortin receptor 5) | IC50 [3] | IC50 [4] | Ki [4]

COC(=O)Nc1nc2ccc(Sc3ccccc3)cc2[nH]1 [FENBENDAZOLE]
Not Active: IC50 [1] | IC50 (Cytochrome P450 2C19) | Ki (Cytochrome P450 2C19) | IC50 [2] | Ki [2] | IC50 (Cytochrome P450 3A4) | Ki (Cytochrome P450 3A4) | IC50 (Melanocortin receptor 5) | IC50 [3] | IC50 [4] | Ki [4]

Nc1ccc(C(=O)O)c(O)c1 [AMINOSALICYLIC ACID]
Not Active: IC50 [1] | IC50 (Cytochrome P450 2C19) | Ki (Cytochrome P450 2C19) | IC50 [2] | Ki [2] | IC50 (Cytochrome P450 3A4) | Ki (Cytochrome P450 3A4) | IC50 (Melanocortin receptor 5) | IC50 [3] | IC50 [4] | Ki [4]

COC(=O)C[C@](O)(CCC(C)(C)O)C(=O)O[C@@H]1C(OC)=C[C@]23CCCN2CCc2cc4c(cc2[C@H]13)OCO4 [HARRINGTONINE]
Not Active: IC50 [1] | IC50 (Cytochrome P450 2C19) | Ki (Cytochrome P450 2C19) | IC50 [2] | Ki [2] | IC50 (Cytochrome P450 3A4) | Ki (Cytochrome P450 3A4) | IC50 (Melanocortin receptor 5) | IC50 [3] | IC50 [4] | Ki [4]

COc1cc(NC(C)CCCN)c2ncccc2c1 (stereo not given) [PRIMAQUINE]
Not Active: IC50 [1] | IC50 (Cytochrome P450 2C19) | Ki (Cytochrome P450 2C19) | IC50 [2] | Ki [2] | IC50 (Cytochrome P450 3A4) | Ki (Cytochrome P450 3A4) | IC50 (Melanocortin receptor 5) | IC50 [3] | IC50 [4] | Ki [4]

OC[C@H]1O[C@@H]2O[C@H]3[C@H](O)[C@@H](O)[C@@H](O[C@H]4[C@H](O)[C@@H](O)[C@@H](O[C@H]5[C@H](O)[C@@H](O)[C@@H](O[C@H]6[C@H](O)[C@@H](O)[C@@H](O[C@H]7[C@H](O)[C@@H](O)[C@@H](O[C@H]8[C@H](O)[C@@H](O)[C@@H](O[C@H]1[C@H](O)[C@H]2O)O[C@@H]8CO)O[C@@H]7CO)O[C@@H]6CO)O[C@@H]5CO)O[C@@H]4CO)O[C@@H]3CO [BETADEX]
Not Active: IC50 [1] | IC50 (Cytochrome P450 2C19) | Ki (Cytochrome P450 2C19) | IC50 [2] | Ki [2] | IC50 (Cytochrome P450 3A4) | Ki (Cytochrome P450 3A4) | IC50 (Melanocortin receptor 5) | IC50 [3] | IC50 [4] | Ki [4]

CARBOXYMETHYLCELLULOSE
Not Active: IC50 [1] | Ki [1] | IC50 (Cytochrome P450 2C19) | Ki (Cytochrome P450 2C19) | IC50 [2] | Ki [2] | IC50 (Cytochrome P450 3A4) | Ki (Cytochrome P450 3A4) | IC50 (Melanocortin receptor 5) | Ki (Melanocortin receptor 5) | IC50 [3] | Ki [3] | IC50 [4] | Ki [4]

NC(=O)CN1CCCC1=O
Not Active: IC50 [1] | IC50 (Cytochrome P450 2C19) | Ki (Cytochrome P450 2C19) | IC50 [2] | Ki [2] | IC50 (Cytochrome P450 3A4) | Ki (Cytochrome P450 3A4) | IC50 (Melanocortin receptor 5) | IC50 [3] | IC50 [4] | Ki [4]

CC(N)Cc1c[nH]c2ccc(OCc3cccs3)cc12 (stereo not given) [BW-723C86]
Not Active: IC50 [1] | IC50 (Cytochrome P450 2C19) | Ki (Cytochrome P450 2C19) | IC50 [2] | Ki [2] | IC50 (Cytochrome P450 3A4) | Ki (Cytochrome P450 3A4) | IC50 (Melanocortin receptor 5) | IC50 [3] | IC50 [4] | Ki [4]

CNC[C@H](O)c1ccc(O)c(O)c1 [EPINEPHRINE]
Not Active: IC50 [1] | IC50 (Cytochrome P450 2C19) | Ki (Cytochrome P450 2C19) | IC50 [2] | Ki [2] | IC50 (Cytochrome P450 3A4) | Ki (Cytochrome P450 3A4) | IC50 (Melanocortin receptor 5) | IC50 [3] | IC50 [4] | Ki [4]
